Assay results: patent US20260021193A1, “IMMUNOCONJUGATES AND METHODS” (Immunome, Inc., priority 2022, published 2026)
Structures can show the parent of a compound that is named as a salt.

Assays:
Jeko-1 = assay: CTG assay of payloads, Jeko-1 cells; type: cell-based, human; conditions: Homo sapiens, JeKo-1; Table 1; 72 h, CellTiter-Glo
Excerpt: (§1) The CTG assay is a method of determining the number of viable cells in culture based on quantitation of the ATP present, an indicator of metabolically active cells. The cell assay requires the addition of a single reagent, Cell Titer Glo, in which cells are lysed and generation of a luminescent signal is produced. The luminescent signal is proportional to the amount of ATP present. The amount of ATP is directly proportional to the number of cells present in culture. For this assay, cells were ensured to be in log-phase for either Jeko-1 or MDA-MB-468. Cells were transferred to 96 wells and treated with compounds in three-fold serial dilution starting from […] (10 points dilution), for 72 h. Cell viability was analyzed with CellTiter-Glo® Luminescent Cell Viability Assay (Promega) following manufactures' instruction. Percentage of viable cells in each compound concentration was determined by normalizing with the luminescence of vehicle control and plotted into percentage of viability versus dose response curve by nonlinear fit in GraphPad Prism software.

[1] = PAMPA (Parallel Artificial Membrane Permeability Assay); type: physicochemical; design: dose or concentration left out as unconfirmed
Excerpt: PAMPA is a method which determines the permeability of substances from a donor compartment, through a lipid-infused artificial membrane into an acceptor compartment. See Ottaviani, G.; Martel, S.; Carrupt, P-A. “Parallel Artificial Membrane Permeability Assay: A New Membrane for the Fast Prediction of Passive Human Skin Permeability”, Journal of Medicinal Chemistry, 2006, 49 (13), 3948-3954). A multi-well microtitre plate is used for the donor and a membrane/acceptor compartment is placed on top; the whole assembly is commonly referred to as a “sandwich”. At the beginning of the test, the drug is added to the donor compartment, and the acceptor compartment is drug-free. After an incubation period which may include stirring, the sandwich is separated, and the amount of drug is measured in each compartment. Mass balance allows calculation of drug that remains in the membrane.
The PAMPA was performed by Pion Inc using the GIT-0 lipid and 5 mM donor solution in pH 5.0 and pH 7.4 PRISMA buffer (containing 0.05% DMSO). The higher PAMPA data has been associated with better bystander killing. (Ogitani Y.; Hagihara K.; Oitate, M.; Naito, H.; Agatsuma T. “Bystander killing effect of DS-8201a, a novel anti-human epidermal growth factor receptor 2 antibody-drug conjugate, in tumors with human epidermal growth factor receptor 2 heterogeneity” Cancer Science, 2016, 107 (7), 1039-1046).

[2] = Human hepatocyte clearance (HHEP CL); type: in vitro ADME; design: CLint scaled / half-life: dose or concentration left out as unconfirmed; conditions: both sexes, human, hepatocytes
Method: Suspensions of human hepatocytes (from 10 mixed gender human donors, final concentration 0.5×10^6 cell/mL) in Williams' E medium were incubated for 90 min with a test compound (0.90% acetonitrile and 0.10% DMSO, final concentration […]) and positive controls (7-Ethoxycoumarin, 7-Hydroxycoumarin, 0.90% acetonitrile and 0.10% DMSO, final concentration […]), with constant shaking at about 600 rpm at 37° C. in an incubator at 5% CO2 and 95% humidity. The total volume of incubation was 200 μl. A sample ([…]) was taken out at T0, 15, 30, 60 and 90 min, which was added intermediately to the ice-cold stop solution (acetonitrile with 200 ng/mL of to butamide and labetalol as internal standard) (125 μl), and vortexed at 500 rpm for 10 min, centrifuged at 3220×g for 20 min at 4° C. Analytical plates were sealed and stored at 4° C. until LCMS analysis. Viability of hepatocytes at pre-incubation was determined to be 84.5%.
(§2) Human liver microsome clearance assay assess metabolism by the cytochrome P450 system (phase I enzymes). These enzymes oxidize substrates by incorporating oxygen atoms into hydrocarbons, thus causing the introduction of hydroxyl groups, or N- O- and S-dealkylation of substrates and forming more polar products easier to be cleared. Human hepatocyte clearance assay measures more broadly the overall cellular metabolism of the test compound (phase I and phase II enzyme pathways). Phase II enzymes catalyze the conjugation reaction of xenobiotic metabolites and charged species, such as glutathione, sulfate, glycine, or glucuronic acid to form even more polar compounds for easier clearance.

[3] = Human liver microsome clearance (HLM CL); type: in vitro ADME; design: CLint scaled / half-life: dose or concentration left out as unconfirmed; conditions: human, microsomes
Method: Working solution was prepared by adding 5 μL of compound and control stock solution (10 mM in dimethyl sulfoxide, DMSO) to 495 μL of acetonitrile (ACN) (intermediate solution concentration: 100 μM, 99% CAN and 1% DMSO. The appropriate concentrations of microsome working solutions were prepared in 100 mM potassium phosphate buffer. After reaction plates containing mixtures of compound and microsomes were pre-incubated at 37° C. for 10 min, […] of 2 mM of NADPH and 2 mM of MgCl2 solution was added to start the reaction. The final concentrations of incubation medium were as follows: microsome—0.5 mg protein/mL, test compound/control […], NADPH—1 mM, MgCl2—1 mM, acetonitrile 0.99%, DMSO 0.01%. Incubations were performed at 37° C. for 60 min. Samples were taken out at T0, T5, T15, T30, T45 and T60, which was added intermediately to the ice-cold stop solution (acetonitrile with 200 ng/mL of to butamide and labetalol as internal standard) (125 μl), shaken for 10 min, centrifuged at 4000 rpm for 20 min at 4° C. Analytical plates were analyzed by LCMS.
as §2

MDA-MB-468 = assay: CTG assay of payloads, MDA-MB-468 cells; type: cell-based, human; conditions: Homo sapiens, MDA-MB-468; Table 1; 72 h, CellTiter-Glo
Excerpt: as §1

| Compound | IC50 (Jeko-1) [nM] | Papp ([1]; pH 5) [×10⁻⁶ cm/s] | Papp ([1]; pH 7.4) [×10⁻⁶ cm/s] | CLint scaled [2] [mL/min/kg] | half-life [2] [min] | CLint scaled [3] [mL/min/kg] | half-life [3] [min] | IC50 (MDA-MB-468) [nM] |
| --- | --- | --- | --- | --- | --- | --- | --- | --- |
| CC[C@@]1(O)C(=O)OCc2c1cc1n(c2=O)Cc2c-1nc1cc(F)c(C)c3c1c2[C@](C)(CO)CC3 (single isomer, unassigned) [Compound 3-27] | 2.1 | 62.2 | 8.5 | 62.4 | 62 | 128 | 9.7 | 18.6 |
| CC[C@@]1(O)C(=O)OCc2c1cc1n(c2=O)Cc2c-1nc1cc(F)c(C)c3c1c2[C@@](C)(CO)CC3 (single isomer, unassigned) [Compound 3-28] | 1.3 | 64 | 8.4 | 62.9 | 61 | 53.8 | 23 | 9.9 |
| CC[C@@]1(O)C(=O)OCc2c1cc1n(c2=O)Cc2c-1nc1cc(F)c(C)c3c1c2[C@](C)(N1CC[C@@H](O)C1)CC3 (single isomer, unassigned) [Compound 5-40] | 10 | 52.2 | 6 | 102 | 38 | 238 | 5.2 | 69.1 |
| CC[C@@]1(O)C(=O)OCc2c1cc1n(c2=O)Cc2c-1nc1cc(F)c(C)c3c1c2[C@](C)(N1CC[C@H](O)C1)CC3 (single isomer, unassigned) [Compound 5-41] | 11.6 | 53.5 | 6.6 | 49.8 | 77 | 92.5 | 13.5 | 92.2 |
| CC[C@@]1(O)C(=O)OCc2c1cc1n(c2=O)Cc2c-1nc1cc(F)c(C)c3c1c2[C@](C)(N(C)CCO)CC3 (single isomer, unassigned) [Compound 7-45, hydrochloride] | 33.5 | 56.6 | 7.5 | 92.2 | 42 | 137 | 9 | 258 |
